In US8921319B2, “Serine protease inhibitors” (The Medicines Company (Leipzig) GmbH, priority 2010, dated 2014):
Read-outs that look alike come from different tables or passages of the source.

Tests used:
[1] = biological target: thrombin (Bos taurus (Bovine), UniProt P00735); experiment: Enzyme assay, inhibition constant for thrombin (chromogenic substrate, Dixon method); type: biochemical, Rind; details: substrate CH3SO2-D-Cha-Gly-Arg-pNA, mean of at least two measurements
Procedure: (§1) Reactions were started by addition of 50 μl of enzyme solution.
(§2) The Ki values are the mean of at least two measurements. Enzymes and substrates used are set out in Table 1 below: […]

[2] = biological target: T1, plasmin (Homo sapiens (Human), UniProt P00747); experiment: Enzyme assay, inhibition constant for human plasmin (chromogenic substrate, Dixon method); type: biochemical; details: 25° C., Tris HCl buffer pH 8.0, substrate Tos-Gly-Pro-Lys-pNA, mean of at least two measurements; read-out: Ki h Plasmin
Procedure: as §1, §2
Target sequence in this assay (P00747 581-810): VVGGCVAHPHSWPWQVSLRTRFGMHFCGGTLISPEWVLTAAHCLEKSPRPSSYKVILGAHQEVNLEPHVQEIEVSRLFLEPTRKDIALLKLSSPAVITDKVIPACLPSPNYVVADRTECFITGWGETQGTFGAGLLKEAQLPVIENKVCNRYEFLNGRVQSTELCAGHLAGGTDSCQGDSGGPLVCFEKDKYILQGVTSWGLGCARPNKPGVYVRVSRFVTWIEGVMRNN
Target sequence in this assay (P00747 97-580 partner): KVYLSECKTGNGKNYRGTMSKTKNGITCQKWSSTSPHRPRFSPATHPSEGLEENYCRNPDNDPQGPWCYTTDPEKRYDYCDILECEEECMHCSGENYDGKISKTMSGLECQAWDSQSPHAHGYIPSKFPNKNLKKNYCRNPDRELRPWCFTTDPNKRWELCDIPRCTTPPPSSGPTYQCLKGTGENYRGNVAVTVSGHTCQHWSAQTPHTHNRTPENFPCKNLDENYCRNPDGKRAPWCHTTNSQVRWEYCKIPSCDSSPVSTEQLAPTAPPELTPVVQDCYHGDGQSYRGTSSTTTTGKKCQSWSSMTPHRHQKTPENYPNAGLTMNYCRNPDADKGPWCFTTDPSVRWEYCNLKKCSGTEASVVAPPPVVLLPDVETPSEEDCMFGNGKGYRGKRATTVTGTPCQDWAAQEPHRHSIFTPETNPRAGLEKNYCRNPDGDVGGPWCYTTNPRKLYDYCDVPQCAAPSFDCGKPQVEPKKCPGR

[3] = biological target: Factor Xa (human) (Homo sapiens (Human), UniProt P00742); experiment: Enzyme assay, inhibition constant for factor Xa (chromogenic substrate, Dixon method); type: biochemical; details: read-out: Ki FXa
Factor Xa (human), sequence (P00742 235-488): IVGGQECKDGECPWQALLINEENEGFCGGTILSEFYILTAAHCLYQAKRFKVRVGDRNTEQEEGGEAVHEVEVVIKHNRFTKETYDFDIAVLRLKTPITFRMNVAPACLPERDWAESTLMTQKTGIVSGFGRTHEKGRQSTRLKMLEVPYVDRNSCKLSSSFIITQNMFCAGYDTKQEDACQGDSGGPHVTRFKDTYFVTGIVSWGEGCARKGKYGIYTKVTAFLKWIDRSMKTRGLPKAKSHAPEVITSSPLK
Factor Xa (human), sequence (P00742 41-179 partner): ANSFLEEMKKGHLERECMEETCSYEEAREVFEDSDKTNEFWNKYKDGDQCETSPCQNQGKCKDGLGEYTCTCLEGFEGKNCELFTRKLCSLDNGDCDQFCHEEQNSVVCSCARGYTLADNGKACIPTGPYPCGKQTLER
Procedure: as §1, §2

[4] = biological target: plasma kallikrein (Homo sapiens (Human), UniProt P03952); experiment: Enzyme assay, inhibition constant for human plasma kallikrein (chromogenic substrate, Dixon method); type: biochemical; details: 25° C., Tris HCl buffer pH 8.0, substrate H-D-Pro-Phe-Arg-pNA, mean of at least two measurements; read-out: Ki PK
plasma kallikrein, sequence (P03952 391-638): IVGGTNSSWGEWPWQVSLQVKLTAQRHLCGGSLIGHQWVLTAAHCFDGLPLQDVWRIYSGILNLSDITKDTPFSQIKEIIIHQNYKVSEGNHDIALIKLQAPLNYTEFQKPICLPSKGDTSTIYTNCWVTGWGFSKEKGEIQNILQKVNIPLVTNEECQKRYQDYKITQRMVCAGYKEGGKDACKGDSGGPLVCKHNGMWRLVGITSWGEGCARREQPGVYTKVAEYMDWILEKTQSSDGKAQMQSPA
plasma kallikrein, sequence (P03952 20-390 partner): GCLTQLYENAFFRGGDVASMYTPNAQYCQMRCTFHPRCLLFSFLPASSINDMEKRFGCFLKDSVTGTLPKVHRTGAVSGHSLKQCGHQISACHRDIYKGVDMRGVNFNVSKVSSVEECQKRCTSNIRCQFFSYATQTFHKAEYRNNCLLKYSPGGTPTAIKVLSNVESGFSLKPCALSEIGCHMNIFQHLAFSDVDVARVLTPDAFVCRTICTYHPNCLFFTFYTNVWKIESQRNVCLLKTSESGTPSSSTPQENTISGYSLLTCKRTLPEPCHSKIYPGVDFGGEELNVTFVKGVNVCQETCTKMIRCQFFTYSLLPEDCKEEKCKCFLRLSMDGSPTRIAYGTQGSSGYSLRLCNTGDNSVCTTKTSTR
Procedure: as §1, §2

[5] = biological target: T1, plasmin; details: background, literature; read-out: Ki / inhibition constant for plasmin; cited from earlier work
Target sequence in this assay (P00747 581-810, species assumed): as the sequence (P00747 581-810) above
Target sequence in this assay (P00747 97-580 partner, species assumed): as the sequence (P00747 97-580 partner) above

[6] = cited from earlier work
[7] = biological target: trypsin; details: background; cited from earlier work
[8] = substrate CH3OCO-D-Cha-Gly-Arg-pNA, mean of at least two measurements

Row | Compound | Ki [1] [nM] | Ki [2] [nM] | Ki [3, 8] [nM] | Ki [4] [nM] | Ki [5] [nM] | Ki [3] [nM] | risk of anaphylactic shock ([6]; first administration) [%] | risk of anaphylactic shock ([6]; repeated administration within 200 days) | Ki [7] [nM]
1 | N=C(N)c1ccc(CNC(=O)[C@@H]2Cc3ccc(cc3)NC(=O)CN3CCN(CC3)CC(=O)Nc3ccc(cc3)C[C@@H](NS(=O)(=O)Cc3ccccc3)C(=O)N2)cc1 [Inhibitor 15] | 8400 | 0.68 | > 10000 | 320 | – | – | – | – | –
2 | N=C(N)c1ccc(CNC(=O)[C@@H]2CCN2C(=O)[C@H](NCC(=O)O)C2CCCCC2)cc1 [melagatran] | – | – | – | – | 700 | – | – | – | –
3 | N=C(N)c1ccc(CNC(=O)[C@@H]2Cc3cn(nn3)Cc3cccc(n3)Cn3cc(nn3)C[C@@H](NS(=O)(=O)Cc3ccccc3)C(=O)N2)cc1 [Inhibitor 2] | 4560 | 2.2 | 1860 | 10.1 | – | – | – | – | –
4 | N=C(N)c1ccc(CNC(=O)[C@@H]2Cc3ccc(cc3)OCCCCOc3ccc(cc3)C[C@@H](NS(=O)(=O)Cc3ccccc3)C(=O)N2)cc1 [Inhibitor 11] | 510 | 1.9 | 2010 | 34.2 | – | – | – | – | –
5 | N=C(N)c1ccc(CNC(=O)[C@@H]2Cc3cccc(c3)CNC(=O)Cc3ccc(cc3)CC(=O)NCc3cccc(c3)C[C@@H](NS(=O)(=O)Cc3ccccc3)C(=O)N2)cc1 [Inhibitor 6] | 45.4 | – | – | 136 | – | 152 | – | – | –
6 | aprotinin | – | – | – | – | – | – | < 0.1 | 4-5% | 0.1
7 | N=C(N)c1ccc(CNC(=O)[C@@H]2Cc3cn(nn3)Cc3ccc(cc3)Cn3cc(nn3)C[C@@H](NS(=O)(=O)Cc3ccccc3)C(=O)N2)cc1 [Inhibitor 14] | 219 | 5.4 | 600 | 12 | – | – | – | – | –

Second part, led by results:

Row | Ki [1] [nM] | Ki [2] [nM] | Ki [3, 8] [nM] | Ki [4] [nM] | Compound | Ki [5] [nM] | Ki [3] [nM] | risk of anaphylactic shock ([6]; first administration) [%] | risk of anaphylactic shock ([6]; repeated administration within 200 days) | Ki [7] [nM]
8 | 187 | 38 | 376 | 18 | N=C(N)c1ccc(CNC(=O)[C@@H]2CCCCNC(=O)c3cccc(c3)C(=O)NCCCC[C@@H](NS(=O)(=O)Cc3ccccc3)C(=O)N2)cc1 [Inhibitor 12] | – | – | – | – | –
9 | 575 | – | 103 | 8.9 | N=C(N)c1ccc(CNC(=O)[C@@H]2Cc3cccc(c3)CNC(=O)Cc3ccccc3CC(=O)NCc3cccc(c3)C[C@@H](NS(=O)(=O)Cc3ccccc3)C(=O)N2)cc1 [Inhibitor 7] | – | – | – | – | –
10 | 4300 | 0.77 | 206 | 2.4 | N=C(N)c1ccc(CNC(=O)[C@@H]2Cc3cn(nn3)Cc3cccc(c3)Cn3cc(nn3)C[C@@H](NS(=O)(=O)Cc3ccccc3)C(=O)N2)cc1 [Inhibitor 1] | – | – | – | – | –
11 | 2120 | – | 3470 | 493 | N=C(N)c1ccc(CNC(=O)[C@@H]2Cc3ccc(cc3)CNC(=O)CN3CCN(CC3)CC(=O)NCc3ccc(cc3)C[C@@H](NS(=O)(=O)Cc3ccccc3)C(=O)N2)cc1 [Inhibitor 9] | – | – | – | – | –
12 | 26.8 | – | 42.1 | 17.4 | N=C(N)c1ccc(CNC(=O)[C@@H]2Cc3cccc(c3)CNC(=O)Cc3cccc(c3)CC(=O)NCc3cccc(c3)C[C@@H](NS(=O)(=O)Cc3ccccc3)C(=O)N2)cc1 [Inhibitor 5] | – | – | – | – | –
13 | 9.1 | – | 26.3 | 31.6 | N=C(N)c1ccc(CNC(=O)[C@@H]2Cc3cccc(c3)CNC(=O)CN3CCN(CC3)CC(=O)NCc3cccc(c3)C[C@@H](NS(=O)(=O)Cc3ccccc3)C(=O)N2)cc1 [Inhibitor 8] | – | – | – | – | –
14 | 6520 | – | 9370 | 868 | N=C(N)c1ccc(CNC(=O)[C@@H]2Cc3ccc(cc3)CNC(=O)Cc3ccc(cc3)CC(=O)NCc3ccc(cc3)C[C@@H](NS(=O)(=O)Cc3ccccc3)C(=O)N2)cc1 [Inhibitor 4] | – | – | – | – | –
15 | 3000 | – | 5700 | 550 | N=C(N)c1ccc(CNC(=O)[C@@H]2Cc3ccc(cc3)CNC(=O)Cc3cccc(c3)CC(=O)NCc3ccc(cc3)C[C@@H](NS(=O)(=O)Cc3ccccc3)C(=O)N2)cc1 [Inhibitor 3] | – | – | – | – | –
16 | 2020 | – | 3430 | 25 | N=C(N)c1ccc(CNC(=O)[C@@H]2CCC(=O)NCc3cccc(c3)CNC(=O)CC[C@@H](NS(=O)(=O)Cc3ccccc3)C(=O)N2)cc1 [Inhibitor 13] | – | – | – | – | –
